Drug uptake, Activity and IC50 data for 5 molecules are collected here from ChEMBL document CHEMBL5104106, “Designed hybrid anticancer nuclear-localized peptide inhibits aggressive cancer cell proliferation” (RSC Med Chem, 2022).

Activity calls are given as the source filed them. The rule behind the calls is not given here. Where a SMILES comes first, the peptide text is derived from it. The star is where a group is joined. X1 = O=C(c1ccccc1-c1c2ccc(=O)cc-2oc2cc(O)ccc12)*

Data set [1] can be described thus: Drug uptake in human K562 cells at 5 uM incubated for 1 hrs by flow cytometry analysis. The conditions noted are these: k562, 1 h. The format is ADME, cell-based. For orientation: In flow cytometry, cells or beads pass a laser one at a time.
Data set [2] in a line: Drug uptake in human U-937 cells at 5 uM incubated for 4 hrs by flow cytometric analysis. It counts as ADME, cell-based. The conditions noted are these: u-937, 4 h.
The nature of data set [3]: Drug uptake in human K562 cells at 5 uM incubated for 4 hrs by Hoechst 33258 staining based fluorescence microscopic analysis. The conditions noted are these: k562, 4 h. It counts as ADME, cell-based.
In data set [4] the test system is K562. As to the kind of experiment: Induction of apoptosis in human K562 cells assessed as […] incubated for 24 hrs by AnnexinV-FITC/propidium iodide staining based flow cytometric analysis (reference value: 31 +/- 0.4 %). It counts as functional.
The subject of data set [5] is K562. The data set can be described thus: Induction of apoptosis in human K562 cells assessed as cell death at 10 to 20 uM incubated for 24 hrs by AnnexinV-FITC/propidium iodide staining based flow cytometric analysis. The format is functional. The conditions noted are these: dose 10-20 µM.
For another data set, the system named is U-937. The data set can be described thus: Induction of apoptosis in human U-937 cells incubated for 24 hrs by AnnexinV-FITC/propidium iodide staining based flow cytometric analysis. The format is functional, cell-based. The conditions noted are these: U-937, 24 h.
Data set [6] concerns K562. As to the kind of experiment: Induction of apoptosis in human K562 cells assessed as late apoptotic cells at 1.5625 to 25 uM incubated for 24 hrs by AnnexinV-FITC/propidium iodide staining based flow cytometric analysis. It counts as functional, cell-based. The conditions noted are these: dose 1.5625-25 µM.
For data set [7], the system named is K562. The data set can be described thus: Induction of apoptosis in human K562 cells incubated for 24 hrs by AnnexinV-FITC/propidium iodide staining based flow cytometric analysis. The format is functional, cell-based. The conditions noted are these: K562, 24 h.
Data set [8] relates to K562. The data set can be described thus: Induction of apoptosis in human K562 cells assessed as early apoptotic cells at 1.5625 to 25 uM incubated for 24 hrs by AnnexinV-FITC/propidium iodide staining based flow cytometric analysis. The conditions noted are these: dose 1.5625-25 µM. It counts as functional, cell-based.

In general, IC50 refers to the concentration that inhibits the measured activity by half.

As for `CC(C)C[C@H](NC(=O)[C@H](Cc1ccccc1)NC(=O)c1ccccc1-c1c2ccc(=O)cc-2oc2cc(O)ccc12)C(=O)N[C@@H](CC(=O)O)C(=O)N[C@H](C(=O)N[C@@H](CC(C)C)C(=O)N[C@H](C(=O)N[C@H](C(=O)N[C@@H](CC(C)C)C(=O)N[C@@H](Cc1cnc[nH]1)C(=O)N[C@@H](CCCNC(=N)N)C(=O)O)C(C)C)C(C)C)[C@@H](C)O` (X1-FLDTLVVLHR-OH), the Drug uptake result in data set [1] is on record as “Active”.

With `CSCC[C@H](NC(=O)[C@H](CC(C)C)NC(=O)[C@H](CCCCN)NC(=O)[C@H](CCC(N)=O)NC(=O)[C@H](CCCNC(=N)N)NC(=O)[C@H](CCCCN)NC(=O)[C@H](CCCNC(=N)N)NC(=O)[C@H](CCC(N)=O)NC(=O)[C@@H](NC(=O)[C@H](CCCNC(=N)N)NC(=O)[C@H](Cc1cnc[nH]1)NC(=O)[C@H](CC(C)C)NC(=O)[C@@H](NC(=O)[C@@H](NC(=O)[C@H](CC(C)C)NC(=O)[C@@H](NC(=O)[C@H](CC(=O)O)NC(=O)[C@H](CC(C)C)NC(=O)[C@H](Cc1ccccc1)NC(=O)c1ccccc1-c1c2ccc(=O)cc-2oc2cc(O)ccc12)[C@@H](C)O)C(C)C)C(C)C)C(C)C)C(=O)N1CCC[C@H]1C(=O)O` (X1-FLDTLVVLHRVQRKRQKLMP-OH), the Drug uptake entry in data set [1], in data set [2] and in data set [3] was “Active” each time.

`CC[C@H](C)[C@H](NC(=O)[C@@H]1CCCN1C(=O)[C@@H](NC(=O)[C@@H](C)N)C(C)C)C(=O)N[C@@H](Cc1ccccc1)C(=O)N[C@@H](CCCCN)C(=O)N[C@@H](Cc1ccccc1)C(=O)N[C@@H](CC(C)C)C(=O)N[C@@H](CC(=O)O)C(=O)N[C@H](C(=O)N[C@@H](CC(C)C)C(=O)N[C@H](C(=O)N[C@H](C(=O)N[C@@H](CC(C)C)C(=O)N[C@@H](Cc1cnc[nH]1)C(=O)N[C@@H](CCCNC(=N)N)C(=O)N[C@H](C(=O)N[C@@H](CCC(N)=O)C(=O)N[C@@H](CCCNC(=N)N)C(=O)N[C@@H](CCCCN)C(=O)N[C@@H](CCCNC(=N)N)C(=O)N[C@@H](CCC(N)=O)C(=O)N[C@@H](CCCCN)C(=O)N[C@@H](CC(C)C)C(=O)N[C@@H](CCSC)C(=O)N1CCC[C@H]1C(=O)O)C(C)C)C(C)C)C(C)C)[C@@H](C)O`: the Activity in the data set on K562 [4] turned out to be 44%. In the data set on K562 [5], the result was Active.

For the molecule H-FLDTLVVLHRVQRKRQKLMP-OH, the figures for the half-maximal inhibitory concentration (IC50) with U-937 and in the data set on K562 [7] were 1390 µM and 5.58 µM, respectively. The outcome in the data set on K562 [6] and in the data set with K562 [8] was Active. In the data set with K562 [4], the Activity is 36%.

Consider H-FLDTLVVLHR-OH, for which the IC50 in the data set with U-937 was found to be 374 µM; in the data set on K562 [7], 30.1 µM.
